Common to all, as to format: cell-based
The target in assay [1] is T1, PPAR alpha (Homo sapiens, UniProt Q07869).
T1 construct: expressed in transfected cells; host or cells: HEK293
T1 sequence (Q07869 1-468): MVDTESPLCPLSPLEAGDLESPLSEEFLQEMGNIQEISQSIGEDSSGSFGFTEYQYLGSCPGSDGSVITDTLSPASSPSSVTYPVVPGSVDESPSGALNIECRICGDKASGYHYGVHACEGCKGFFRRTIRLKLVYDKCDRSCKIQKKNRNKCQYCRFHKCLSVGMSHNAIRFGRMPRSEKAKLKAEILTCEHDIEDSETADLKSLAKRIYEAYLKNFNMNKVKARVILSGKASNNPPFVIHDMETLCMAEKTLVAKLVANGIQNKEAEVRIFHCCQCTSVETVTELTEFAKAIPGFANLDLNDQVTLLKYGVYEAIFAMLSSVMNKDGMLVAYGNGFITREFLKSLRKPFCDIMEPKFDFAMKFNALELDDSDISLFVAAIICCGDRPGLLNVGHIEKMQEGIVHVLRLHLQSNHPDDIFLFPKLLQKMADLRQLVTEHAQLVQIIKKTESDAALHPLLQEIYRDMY
The assay can be described thus: Full-length PPAR transcriptional activation assay (PPRE::Luciferase reporter, HEK293 cells), PPAR alpha. To be noted: transfected HEK293 cells, species of receptor not given. The method, then: (§1) HEK293 cells were seeded the day before transfection into 384-well plates at a cell density of 6,000 cells per well in 40 μl assay medium I (phenol red-free DMEM containing 4% charcoal-dextran stripped FBS, 1% Penicillin-Streptomycin and 1% GlutaMax-1). Then 25 ng of PPRE::Luciferase reporter plasmid, an expression plasmid (25 pg of PPARα, or 40 pg of PPARδ, or 75 pg of PPARγ2), and an appropriate amount of the plasmid pUC19 to bring the total DNA amount to 50 ng was added to 20 μl of phenol-red free DMEM and 150 nL of Fugene 6 and incubated for 30 minutes. The transfection mixtures were then added to the cells and incubated for three hours. 10 μl of test agents in 5% DMSO were then added to the cells and incubated at 37° C. for an additional 18 hours. Luciferase activity was then assayed by adding 25 μl/well of Britelite (Perkin Elmer) according to the manufacturer's protocol and relative light output was measured with an Analyst GT plate reader (Molecular Devices). All experimental points were done in triplicate and the assays were repeated at least 3 times.
(§2) HEK293 cells were seeded the day before transfection in […] dishes at a density of 9×10^6 cells/dish and incubated at 37° C., 10% CO2 for 16-24 hours. Then, […] of PPRE::Luciferase reporter plasmid, an expression plasmid (7.5 ng of PPARα, or 7.5 ng of PPARδ, or 75 ng of PPARγ2), and an appropriate amount of the plasmid pUC19 to bring the total DNA amount to […] were mixed with 54 μl of Fugene 6 in 2 mls of phenol red-free DMEM and incubated for 30 minutes. Transfection mixtures were then incubated with the cells for 18 hours. Cells were then replated into sterile, white TC treated 384-well assay plates at a cell density of 24×10^3 cells/well in 40 μl of assay medium II (phenol-red free DMEM containing 3% charcoal/dextran-stripped FBS, 1% Penicillin-Streptomycin and 1% GlutaMax-1) and incubated at 37° C. for 6 hours. 10 μl of test agents in 5% DMSO were then added to the cells and incubated at 37° C. for an additional 18 hours. Luciferase activity was then assayed by adding 30 μl/well of Britelite (Perkin Elmer) according to the manufacturer's protocol and relative light output was measured with an Analyst GT plate reader (Molecular Devices). All experimental points were done in triplicate and the assays were repeated 3 times.

Assay [2] deals with T2, PPAR delta (Homo sapiens, UniProt Q03181).
T2 construct: expressed in transfected cells; host or cells: HEK293
T2 sequence (Q03181 1-441): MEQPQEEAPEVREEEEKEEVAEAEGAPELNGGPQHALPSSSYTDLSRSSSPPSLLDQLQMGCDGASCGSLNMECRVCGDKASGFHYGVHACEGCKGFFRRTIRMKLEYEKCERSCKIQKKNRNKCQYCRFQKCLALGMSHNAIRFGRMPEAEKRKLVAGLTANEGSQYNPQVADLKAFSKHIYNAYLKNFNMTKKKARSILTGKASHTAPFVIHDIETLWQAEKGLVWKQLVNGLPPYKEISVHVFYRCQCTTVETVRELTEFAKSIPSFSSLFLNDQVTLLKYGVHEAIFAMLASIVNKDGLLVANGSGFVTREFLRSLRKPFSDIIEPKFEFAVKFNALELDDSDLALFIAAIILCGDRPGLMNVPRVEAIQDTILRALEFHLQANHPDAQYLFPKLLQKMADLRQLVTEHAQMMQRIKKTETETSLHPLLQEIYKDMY
Nature of the assay: Full-length PPAR transcriptional activation assay (PPRE::Luciferase reporter, HEK293 cells), PPAR delta. To be noted: transfected HEK293 cells, species of receptor not given. The method, then:
as §1, §2

The target in assay [3] is T3, PPAR gamma (Homo sapiens, UniProt P37231).
T3 construct: expressed in transfected cells; host or cells: HEK293
T3 sequence (P37231 1-505): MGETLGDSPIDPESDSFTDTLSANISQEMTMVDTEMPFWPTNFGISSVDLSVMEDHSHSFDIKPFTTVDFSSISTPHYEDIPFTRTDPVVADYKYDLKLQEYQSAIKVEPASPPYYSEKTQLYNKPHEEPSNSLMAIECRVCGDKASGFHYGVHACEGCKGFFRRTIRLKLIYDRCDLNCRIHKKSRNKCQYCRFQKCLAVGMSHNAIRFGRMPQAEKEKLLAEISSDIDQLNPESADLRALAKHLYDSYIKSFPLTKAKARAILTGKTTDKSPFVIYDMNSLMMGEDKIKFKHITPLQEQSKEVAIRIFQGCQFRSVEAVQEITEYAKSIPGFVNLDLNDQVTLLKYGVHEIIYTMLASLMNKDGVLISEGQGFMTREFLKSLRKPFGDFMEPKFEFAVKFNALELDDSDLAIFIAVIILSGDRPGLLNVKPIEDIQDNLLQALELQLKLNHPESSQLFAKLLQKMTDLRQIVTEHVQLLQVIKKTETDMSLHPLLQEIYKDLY
Nature of the assay: Full-length PPAR transcriptional activation assay (PPRE::Luciferase reporter, HEK293 cells), PPAR gamma. As to conditions: transfected HEK293 cells (PPARγ2 plasmid), species of receptor not given. On the procedure: as §1, §2

Consider ten molecules from patent US20070219193A1, “ALKYLAMINE-SUBSTITUTED BICYCLIC ARYL COMPOUNDS USEFUL AS MODULATORS OF PPAR” (KALYPSYS, INC, priority 2006, published 2007).

Regarding `CCc1cnc(N(CCc2ccc(C(F)(F)F)cc2)CCN2CCc3ccc(CC(=O)O)cc3C2)nc1` [Example 8, [2-(2-{(5-Ethyl-pyrimidin-2-yl)-[2-(4-trifluoromethyl-phenyl)-ethyl]-amino}-ethyl)-1,2,3,4-tetrahydro-isoquinolin-7-yl]-acetic acid], the concentration for a half-maximal effect (EC50) in assay [1] is greater than 1 µM; in assay [2] it was no more than 1 µM; in assay [3], greater than 1 µM.

On to `CCc1cnc(N(CCCN2CCc3ccc(CC(=O)O)cc3C2)CCc2ccc(C(F)(F)F)cc2)nc1` [Example 9, [2-(3-{(5-Ethyl-pyrimidin-2-yl)-[2-(4-trifluoromethyl-phenyl)-ethyl]-amino}-propyl)-1,2,3,4-tetrahydro-isoquinolin-7-yl]-acetic acid], for which the EC50 in assay [1] was greater than 1 µM; in assay [2] it was no more than 1 µM; in assay [3], greater than 1 µM.

As for `CCc1cnc(N(CCCC2CCc3ccc(CC(=O)O)cc3O2)Cc2ccc(C(F)(F)F)cc2)nc1` (stereo not drawn) [Example 10, (2-{3-[(5-Ethyl-pyrimidin-2-yl)-(4-trifluoromethyl-benzyl)-amino]-propyl}-chroman-7-yl)-acetic acid], the EC50 was greater than 1 µM in assay [1], no more than 1 µM in assay [2] and no more than 1 µM in assay [3].

For `CCc1cnc(N(CCCC2CCc3c(CC(=O)O)cccc3O2)Cc2ccc(C(F)(F)F)cc2)nc1` (stereo not drawn) [Example 11, (2-{3-[(5-Ethyl-pyrimidin-2-yl)-(4-trifluoromethyl-benzyl)-amino]-propyl}-chroman-5-yl)-acetic acid], the half-maximal effective concentration (EC50) in assay [1] was greater than 1 µM; in assay [2], no more than 1 µM; in assay [3], no more than 1 µM.

Turning to `CCc1cnc(N(CCCC2CCc3ccc(CC(=O)O)cc3O2)Cc2ccc(OC(F)(F)F)cc2)nc1` (stereo not drawn) [Example 12, 2-(2-(3-((5-Ethylpyrimidin-2-yl)(4-(trifluoromethoxy)benzyl)amino)propyl)chroman-7-yl)acetic acid], the EC50 was greater than 1 µM in assay [1], no more than 1 µM in assay [2] and no more than 1 µM in assay [3].

Take `CCc1cnc(N(CCCC2CCc3c(CC(=O)O)cccc3O2)Cc2ccc(OC(F)(F)F)cc2)nc1` (stereo not drawn) [Example 13, 2-(2-(3-((5-Ethylpyrimidin-2-yl)(4-(trifluoromethoxy)benzyl)amino)propyl)chroman-5-yl)acetic acid]: the half-maximal effective concentration (EC50) is greater than 1 µM in assay [1], no more than 1 µM in assay [2] and no more than 1 µM in assay [3].

Regarding `CCc1cnc(N(CCCC2CCc3ccc(CC(=O)O)cc3O2)CCc2ccc(OC(F)(F)F)cc2)nc1` (stereo not drawn) [Example 14, 2-(2-(3-((5-Ethylpyrimidin-2-yl)(4-(trifluoromethoxy)phenethyl)amino)propyl)chroman-7-yl)acetic acid], the EC50 in assay [1] was greater than 1 µM; in assay [2], no more than 1 µM; in assay [3] it was no more than 1 µM.

`CCc1cnc(N(CCCC2CCc3c(CC(=O)O)cccc3O2)CCc2ccc(OC(F)(F)F)cc2)nc1` (stereo not drawn) [Example 15, 2-(2-(3-((5-Ethylpyrimidin-2-yl)(4-(trifluoromethoxy)phenethyl)amino)propyl)chroman-5-yl)acetic acid]: the concentration giving a half-maximal response (EC50) in assay [1] is greater than 1 µM; in assay [2] it was no more than 1 µM; in assay [3], no more than 1 µM.

For `CCc1cnc(N(CCC2CCc3ccc(CC(=O)O)cc3O2)Cc2ccc(C(F)(F)F)cc2)nc1` (stereo not drawn) [Example 16, 2-(2-(2-((5-ethylpyrimidin-2-yl)(4-(trifluoromethyl)benzyl)amino)ethyl)chroman-7-yl)acetic acid], the EC50 in assay [1], in assay [2] and in assay [3] was no more than 1 µM in each case.

Consider `CCc1cnc(N(CCC2CCc3c(CC(=O)O)cccc3O2)Cc2ccc(C(F)(F)F)cc2)nc1` (stereo not drawn) [Example 17, 2-(2-(2-((5-ethylpyrimidin-2-yl)(4-(trifluoromethyl)benzyl)amino)ethyl)chroman-5-yl)acetic acid], for which the EC50 in assay [1], in assay [2] and in assay [3] was no more than 1 µM each time.
